Legend:
[1] = system: cocklebur; assay: Test B pre/postemergence cocklebur; type: in vivo, Xanthium strumarium
How it was run: (§1)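 Response is a visual 0-to-10 score relative to untreated plants, where 0 means no effect and 10 means complete control, taken twelve to sixteen days after application. Treatments went onto soil at planting and onto foliage of 1- to 4-leaf plants, using a surfactant-containing non-phytotoxic solvent.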

[2] = system: soybean; assay: Test B pre/postemergence soybean; type: in vivo, Glycine max; settings: for Plant response rating, Soybean: Rate 500 g/ha
How it was run: as §1

[3] = system: corn; assay: Test B pre/postemergence corn; type: in vivo, Zea mays
How it was run: as §1

[4] = system: bamyardgrass; assay: Test B flood test barnyardgrass; type: in vivo, Echinochloa crus-galli
How it was run: (§2)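 Each value is a visual injury score relative to controls, with 10 meaning complete control and 0 no effect. Evaluation took place twelve to sixteen days after the 2-leaf-stage plants were treated and kept in the greenhouse.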

[5] = system: rice; assay: Test B flood test rice; type: in vivo, Oryza sativa
How it was run: as §2

[6] = system: crabgrass; assay: Test B pre/postemergence crabgrass; type: in vivo, Digitaria sanguinalis
How it was run: as §1

[7] = system: purple nutsedge; assay: Test B pre/postemergence purple nutsedge; type: in vivo, Cyperus rotundus
How it was run: as §1

[8] = system: blackgrass; assay: Test B pre/postemergence blackgrass; type: in vivo, Alopecurus myosuroides
How it was run: as §1

[9] = system: smallflower flatsedge; assay: Test B flood test smallflower flatsedge; type: in vivo, Cyperus difformis
How it was run: as §2

[10] = system: rape; assay: Test B pre/postemergence rape; type: in vivo, Brassica napus
How it was run: as §1

[11] = system: duck salad; assay: Test B flood test duck salad; type: in vivo, Heteranthera limosa
How it was run: as §2

[12] = system: wheat; assay: Test B pre/postemergence wheat; type: in vivo, Triticum aestivum
How it was run: as §1

[13] = system: sugar beet; assay: Test B pre/postemergence sugar beet; type: in vivo, Beta vulgaris
How it was run: as §1

[14] = system: bedstraw; assay: Test B pre/postemergence bedstraw; type: in vivo, Galium aparine; settings: Preemergence
How it was run: as §1

[15] = system: surinam grass; assay: Test B pre/postemergence surinam grass; type: in vivo, Brachiaria decumbens
How it was run: as §1

[16] = system: velvetleaf; assay: Test B pre/postemergence velvetleaf; type: in vivo, Abutilon theophrasti
How it was run: as §1

[17] = system: wild oat; assay: Test B pre/postemergence wild oat; type: in vivo, Avena fatua
How it was run: as §1

[18] = system: morningglory; assay: Test B pre/postemergence morningglory; type: in vivo, Ipomoea hederacea
How it was run: as §1

[19] = system: giant foxtail; assay: Test B pre/postemergence giant foxtail; type: in vivo, Setaria faberii
How it was run: as §1

[20] = system: pigweed; assay: Test B pre/postemergence pigweed; type: in vivo, Amaranthus retroflexus
How it was run: as §1

[21] = Postemergence, Rate 62 g/ha, scale of 0 to 10, 0 is no effect, 10 is complete control
[22] = Postemergence, Rate 125 g/ha, scale of 0 to 10 where 0 is no effect and 10 is complete control
[23] = Postemergence, Rate 250 g/ha, scale of 0 to 10, 0 is no effect, 10 is complete control
[24] = Postemergence, Rate 500 g/ha, scale of 0 to 10 where 0 is no effect and 10 is complete control
[25] = Preemergence, Rate 125 g/ha, scale of 0 to 10 where 0 is no effect and 10 is complete control
[26] = Preemergence, Rate 500 g/ha, scale of 0 to 10 where 0 is no effect and 10 is complete control
[27] = Preemergence, Rate 62 g/ha, scale 0 to 10 (0 no effect, 10 complete control)
[28] = Rate 62 g/ha, flood test species, Pre-emergence, visual evaluation after twelve to sixteen days
[29] = Rate 125 g/ha, under heading Pre-emergence, flood test species, visual evaluation after twelve to sixteen days
[30] = Rate 250 g/ha, Pre-emergence (flood test species), scale 0 to 10, 0 is no effect, 10 is complete control
[31] = Rate 500 g/ha, Pre-emergence section of Table B, 0 to 10 scale (0 no effect, 10 complete control)

CC(C)N(C(=O)n1oc(=O)n(C(CF)CF)c1=O)c1ccc(F)cc1F [Compound 595]
8: Plant response rating, Crabgrass [6, 22] | Sugarbeets plant response rating [13, 25] | Bedstraw plant response rating ([14]; Rate 125 g/ha, scale of 0 to 10 where 0 is no effect and 10 is complete control) | Wild oats plant response rating [17, 25] | Giant foxtail plant response rating [19, 21]
0: Cocklebur plant response rating [1, 21] | Plant response rating, Cocklebur [1, 22] | Cocklebur plant response rating [1, 23] | Cocklebur plant response rating [1, 25] | Cocklebur plant response rating (0 to 10 scale) ([1]; Preemergence, Rate 250 g/ha) | Plant response rating, Cocklebur [1, 26] | Soybean plant response rating [2, 27] | Corn plant response rating [3, 21] | Plant response rating, Corn [3, 22] | Corn plant response rating [3, 27] | Corn plant response rating [3, 25] | Plant response rating, Barnyardgrass (0 to 10 scale, 0 is no effect, 10 is complete control) [4, 28] | Barnyardgrass plant response rating (0 to 10 scale, 0 is no effect, 10 is complete control) [4, 29] | Barnyardgrass plant response rating [4, 30] | Barnyardgrass plant response rating [4, 31] | Plant response rating, Rice (0 to 10 scale, 0 is no effect, 10 is complete control) [5, 28] | Rice plant response rating (0 to 10 scale, 0 is no effect, 10 is complete control) [5, 29] | Rice plant response rating [5, 30] | Rice plant response rating [5, 31] | Nutsedge plant response rating [7, 21] | Plant response rating, Nutsedge [7, 22] | Nutsedge plant response rating [7, 23] | Plant response rating, S. Flatsedge (0 to 10 scale, 0 is no effect, 10 is complete control) [9, 28] | S. Flatsedge plant response rating (0 to 10 scale, 0 is no effect, 10 is complete control) [9, 29] | S. Flatsedge plant response rating [9, 30] | S. Flatsedge plant response rating [9, 31] | Rape plant response rating [10, 21] | Plant response rating, Rape [10, 22] | Plant response rating, Ducksalad (0 to 10 scale, 0 is no effect, 10 is complete control) [11, 28] | Ducksalad plant response rating (0 to 10 scale, 0 is no effect, 10 is complete control) [11, 29] | Ducksalad plant response rating [11, 30] | Ducksalad plant response rating [11, 31] | Plant response rating, Wheat [12, 22] | Wheat plant response rating [12, 27] | Bedstraw plant response rating ([14]; Rate 62 g/ha, scale 0 to 10 (0 no effect, 10 complete control)) | B. signalgrass plant response rating [15, 21] | Plant response rating, B. signalgrass [15, 22] | Plant response rating, Wild oats [17, 22] | Morningglory plant response rating [18, 27] | Morningglory plant response rating [18, 25] | Plant response rating, Redroot pigweed [20, 22] | Redroot pigweed plant response rating [20, 27]
2: Plant response rating, Cocklebur [1, 24] | Corn plant response rating [3, 23] | Rape plant response rating [10, 23] | Plant response rating, Rape [10, 24] | Wheat plant response rating [12, 23] | B. signalgrass plant response rating [15, 27] | Wild oats plant response rating [17, 23] | Plant response rating, Morningglory [18, 22]
7: Crabgrass plant response rating [6, 27] | Plant response rating, Blackgrass [8, 22] | B. signalgrass plant response rating (0 to 10 scale, 0 is no effect, 10 is complete control) ([15]; Preemergence, Rate 250 g/ha) | Velvetleaf plant response rating [16, 23] | Plant response rating, Velvetleaf [16, 24] | Velvetleaf plant response rating [16, 27] | Velvetleaf plant response rating [16, 25] | Plant response rating, Redroot pigweed [20, 24]
6: Plant response rating, Corn [3, 26] | Blackgrass plant response rating [8, 27] | Plant response rating, Wheat [12, 26] | Sugarbeets plant response rating [13, 27] | B. signalgrass plant response rating [15, 23] | Plant response rating, B. signalgrass [15, 24] | B. signalgrass plant response rating [15, 25] | Plant response rating, Morningglory [18, 24] | Plant response rating, Morningglory [18, 26]
4: Soybean plant response rating [2, 23] | Plant response rating, Soybean ([2]; Postemergence, scale of 0 to 10 where 0 is no effect and 10 is complete control) | Plant response rating, Soybean ([2]; Preemergence, scale of 0 to 10 where 0 is no effect and 10 is complete control) | Corn plant response rating (0 to 10 scale) ([3]; Preemergence, Rate 250 g/ha) | Plant response rating, Nutsedge [7, 26] | Rape plant response rating [10, 27] | Rape plant response rating [10, 25] | Plant response rating, Velvetleaf [16, 22] | Plant response rating, Wild oats [17, 24]
1: Soybean plant response rating [2, 25] | Wheat plant response rating [12, 25] | Morningglory plant response rating [18, 21]
9: Crabgrass plant response rating [6, 23] | Plant response rating, Crabgrass [6, 24] | Crabgrass plant response rating [6, 25] | Blackgrass plant response rating [8, 23] | Plant response rating, Blackgrass [8, 24] | Blackgrass plant response rating [8, 25] | Plant response rating, Sugarbeets [13, 26] | B. signalgrass plant response rating [15, 26] | Plant response rating, Velvetleaf [16, 26] | Plant response rating, Wild oats [17, 26] | Plant response rating, Giant foxtail [19, 22] | Giant foxtail plant response rating [19, 23] | Plant response rating, Giant foxtail [19, 24] | Plant response rating, Giant foxtail [19, 26]
3: Plant response rating, Corn [3, 24] | Nutsedge plant response rating [7, 25] | Blackgrass plant response rating [8, 21] | Plant response rating, Wheat [12, 24] | Plant response rating, Sugarbeets [13, 22] | Sugarbeets plant response rating [13, 23] | Plant response rating, Sugarbeets [13, 24] | Wild oats plant response rating [17, 27] | Morningglory plant response rating [18, 23] | Redroot pigweed plant response rating [20, 23]
5: Crabgrass plant response rating [6, 21] | Plant response rating, Nutsedge [7, 24]
10: Plant response rating, Crabgrass [6, 26] | Blackgrass plant response rating (0 to 10 scale) ([8]; Preemergence, Rate 250 g/ha) | Blackgrass plant response rating [8, 26] | Plant response rating, Rape [10, 26] | Bedstraw plant response rating ([14]; Rate 500 g/ha, scale of 0 to 10 where 0 is no effect and 10 is complete control) | Giant foxtail plant response rating [19, 27] | Giant foxtail plant response rating [19, 25] | Redroot pigweed plant response rating [20, 25] | Plant response rating, Redroot pigweed [20, 26]

Source: patent US6737383B1, “Herbicidal oxadiazolidines” (priority 1999, dated 2004)
